Test results published in the supplement of paper PMC10307832.

What was measured:
Experiment in all cases: relative viability (nuclei count vs DMSO), 5 days (fraction); higher = more cells survive
[1] = compound: O[C@H]1CC[C@H](Nc2ncc3nc(Nc4c(F)cc(F)cc4F)n([C@H]4CCOC4)c3n2)CC1 [Tanzisertib] + CC(=O)Nc1cccc(-n2c(=O)n(C3CC3)c(=O)c3c(Nc4ccc(I)cc4F)n(C)c(=O)c(C)c32)c1 [Trametinib] (partner 0.02 µM)
Method in brief: (§1)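 Dosing by pin tool came one day after lung cancer cell lines were seeded in 1536-well plates, using either one drug or a fixed anchor-drug dose plus five library-drug doses (not always all listed) in √10 steps. After 5 days, nuclei were counted on 4× images. Relative viability is treated-well nuclei count divided by vehicle-well nuclei count, and values are medians of duplicate plates.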

[2] = compound: C1CNCCC1C2=CC(=NN2)C3=CC=NC=C3 + CCNC(=O)c1noc(-c2cc(C(C)C)c(O)cc2O)c1-c1ccc(CN2CCOCC2)cc1 [Luminespib] (partner 0.01 µM)
Method in brief: as §1

[3] = compound: C1CNCCC1C2=CC(=NN2)C3=CC=NC=C3 + CS(=O)(=O)N1CCN(Cc2cc3nc(-c4cccc5[nH]ncc45)nc(N4CCOCC4)c3s2)CC1 [Pictilisib] (partner 1 µM)
Method in brief: as §1

[4] = compound: C1CNCCC1C2=CC(=NN2)C3=CC=NC=C3 + CC(C)C[C@H](NC(=O)[C@H](Cc1ccccc1)NC(=O)c1cnccn1)B(O)O [Bortezomib] (partner 0.002 µM)
Method in brief: as §1

Cell Line	relative viability ([1]; first compound 0.253 µM)	relative viability ([1]; first compound 0.8 µM)	relative viability ([1]; first compound 2.53 µM)	relative viability ([1]; first compound 8 µM)	relative viability ([2]; first compound 0.08 µM)	relative viability ([2]; first compound 0.8 µM)	relative viability ([2]; first compound 2.53 µM)	relative viability ([2]; first compound 8 µM)	relative viability ([3]; first compound 0.08 µM)	relative viability ([3]; first compound 0.8 µM)	relative viability ([3]; first compound 2.53 µM)	relative viability ([3]; first compound 8 µM)	relative viability ([1]; first compound 0.08 µM)	relative viability ([4]; first compound 0.08 µM)	relative viability ([4]; first compound 0.8 µM)	relative viability ([4]; first compound 2.53 µM)	relative viability ([4]; first compound 8 µM)
SW 900	0.868	0.857	0.552	0.737	0.187	0.172	0.165	0.168	–	–	–	–	–	–	–	–	–
NCI-H1944	0.422	0.435	0.343	0.403	0.665	0.691	0.81	0.693	0.377	0.341	0.334	0.341	0.455	–	–	–	–
NCI-H727	0.391	0.387	0.347	0.352	0.27	0.693	0.453	0.36	0.373	0.407	0.505	0.575	0.38	0.842	0.829	1.14	0.911
NCI-H1650	0.689	0.609	0.532	0.415	0.246	0.209	0.201	0.223	0.353	0.701	0.632	0.63	0.458	0.212	0.184	0.214	0.204
HCC-827	0.552	0.481	0.411	0.265	0.571	0.522	0.749	0.57	0.981	0.918	0.919	0.891	0.556	1	1.02	1.06	1.01
HCC-366	0.39	0.376	0.292	0.258	–	–	–	–	0.162	0.127	0.11	0.182	–	0.856	1.11	1.08	1.04
HARA	0.692	0.689	0.711	0.687	0.647	0.72	0.793	0.687	0.419	0.421	0.437	0.402	0.801	1	1.28	1.1	1.15
NCI-H322M	0.482	0.491	0.448	0.544	0.677	0.944	0.904	1.04	0.423	0.482	0.523	0.479	0.464	1.27	1.19	1.39	1.29
LXF-289	0.691	0.748	0.663	0.82	0.804	0.589	0.69	0.705	0.776	0.845	0.823	0.829	0.694	1.05	1.14	0.968	0.962
PC-3 [JPC-3]	0.759	0.763	0.774	0.612	0.643	0.673	0.7	0.556	0.719	0.721	0.738	0.766	0.715	0.845	0.814	0.811	0.793
CAL-12T	0.336	0.396	0.387	0.432	0.606	0.734	0.457	0.819	0.619	0.549	0.481	0.616	0.317	1.08	1.01	1.05	1.07
COR-L 105	0.493	0.485	0.448	0.37	0.688	0.648	0.921	0.962	0.421	0.429	0.398	0.396	0.43	0.737	0.746	1.01	0.851
NCI-H2347	0.255	0.261	0.259	0.29	0.366	0.5	0.511	0.564	0.661	0.672	0.651	0.494	0.256	0.937	0.951	1.05	0.969
NCI-H2126	0.597	0.611	0.546	0.59	0.813	0.975	0.959	0.917	0.521	0.492	0.55	0.539	0.56	1.1	1.12	1.16	1.12
NCI-H838	0.566	0.506	0.529	0.49	0.315	0.355	0.281	0.302	0.439	0.491	0.471	0.461	0.705	0.823	0.939	0.739	0.73
A549	–	–	–	–	–	–	–	–	0.509	0.654	0.575	0.548	–	–	–	–	–
NCI-H2342	0.733	0.804	0.863	0.938	0.716	0.781	0.888	0.857	–	–	–	–	0.791	–	–	–	–
NCI-H1623	–	–	–	–	0.401	0.5	0.564	0.551	–	–	–	–	–	–	–	–	–
SK-LU-1	0.507	0.528	0.54	0.471	0.204	0.209	0.206	0.212	0.515	0.499	0.686	0.644	0.576	1	–	1.38	1.27
NCI-H2085	0.604	0.436	0.556	0.491	0.412	0.38	0.498	0.435	0.406	–	0.448	0.546	–	0.975	0.736	1.11	1.03
NCI-H460	0.11	0.2	0.139	0.0888	0.0398	0.0336	0.0427	0.0305	0.423	0.289	0.436	0.385	0.177	0.892	1.49	1.06	1.12
Calu-6	–	–	–	–	–	–	–	–	0.843	1.02	0.971	0.904	–	0.873	1.13	1.17	1.09
RERF-LC-KJ	0.919	0.959	0.782	0.834	1.14	1.3	1.45	1.42	0.458	0.619	0.715	0.625	0.863	1.09	1.22	1.16	1.12
LCLC-103H	0.744	0.703	0.691	0.71	1.06	0.909	0.982	0.961	0.499	0.61	0.617	0.64	0.661	1.06	0.936	1.3	1.12

Cell Line	relative viability ([1]; first compound 0.253 µM)	relative viability ([1]; first compound 0.8 µM)	relative viability ([1]; first compound 2.53 µM)	relative viability ([1]; first compound 8 µM)	relative viability ([2]; first compound 0.08 µM)	relative viability ([2]; first compound 0.8 µM)	relative viability ([2]; first compound 2.53 µM)	relative viability ([2]; first compound 8 µM)	relative viability ([3]; first compound 0.08 µM)	relative viability ([3]; first compound 0.8 µM)	relative viability ([3]; first compound 2.53 µM)	relative viability ([3]; first compound 8 µM)	relative viability ([1]; first compound 0.08 µM)	relative viability ([4]; first compound 0.08 µM)	relative viability ([4]; first compound 0.8 µM)	relative viability ([4]; first compound 2.53 µM)	relative viability ([4]; first compound 8 µM)
HCC-15	0.364	0.414	0.36	0.342	0.324	0.347	0.345	0.205	0.738	0.772	0.722	0.75	0.406	0.991	1.23	0.994	0.938
H3255	0.646	0.766	0.726	0.523	0.755	0.955	1.15	1.08	0.469	0.477	0.511	0.442	0.696	0.826	0.835	1.41	0.741
NCI-H1792	0.455	0.35	0.413	0.244	0.43	0.414	0.636	0.483	0.223	0.246	0.345	0.304	0.501	0.96	0.998	1.07	0.993
NCI-H1563	–	–	–	–	0.536	0.497	0.518	0.494	0.575	0.662	0.592	0.611	–	0.744	0.853	0.917	0.977
NCI-H596	0.796	0.89	0.73	0.776	0.967	1.07	1.11	1.16	0.407	0.425	0.392	0.407	0.789	1	1.06	1.12	1.16
NCI-H2087	0.171	0.21	0.181	0.182	0.145	0.178	0.281	0.254	0.855	1.03	1.1	1.09	0.256	0.866	1.01	0.728	0.763
NCI-H661	0.574	0.55	0.647	0.54	0.93	0.915	0.934	0.848	0.516	0.422	0.522	0.445	0.684	0.916	0.825	0.801	1.01
NCI-H522	0.535	0.688	0.826	0.69	1.06	1.4	0.948	1.21	–	–	–	–	0.766	–	–	–	–
EMC-BAC-2	0.84	0.864	0.955	0.962	0.882	1.16	1.28	1.14	0.449	0.613	0.544	0.517	0.904	0.978	1.19	1.2	1.03
NCI-H1355	0.433	0.47	0.417	0.464	0.64	0.818	0.696	0.766	0.501	0.52	0.517	0.423	0.455	1.23	1.22	1.27	1.26
NCI-H1299	–	–	–	–	–	–	–	–	0.711	0.886	0.772	0.819	–	1.02	1.01	1.02	0.999
LK-2	0.76	0.816	0.694	0.866	0.176	0.19	0.214	0.226	0.452	0.746	0.572	0.623	0.916	–	–	–	–
HCC-78	0.737	0.889	0.787	0.842	–	–	–	–	0.21	–	0.189	0.223	0.847	0.439	0.405	0.467	0.619
NCI-H358	0.134	0.151	0.155	0.133	0.478	0.279	0.369	0.388	0.323	0.376	0.357	0.422	0.141	–	–	–	–
SK-MES-1	0.549	0.54	0.493	0.385	0.716	0.82	0.736	0.613	0.397	0.344	0.404	0.319	0.618	–	–	–	–
NCI-H1648	0.459	0.51	0.5	0.482	–	–	–	–	–	–	–	–	0.492	–	–	–	–
EBC-1	–	–	–	–	–	–	–	–	0.447	0.425	0.364	0.409	–	0.694	0.575	0.591	0.55
NCI-H1395	0.932	0.989	0.991	1.05	0.771	0.692	0.563	0.764	0.837	0.535	0.677	0.785	1.03	–	–	–	–
IA-LM	–	–	–	–	–	–	–	–	0.374	0.482	0.371	0.477	–	0.911	0.934	1.08	0.864
ABC-1	–	–	–	–	0.517	0.69	1.02	0.663	0.735	0.812	0.865	0.869	–	0.329	0.253	0.332	0.351
NCI-H1703	–	–	–	–	–	–	–	–	0.253	0.253	0.21	0.22	–	0.502	0.334	0.351	0.366
NCI-H2170	0.965	0.927	0.926	0.874	0.534	0.739	0.737	0.567	0.278	0.304	0.309	0.364	0.989	–	–	–	–
NCI-H1793	0.419	0.475	0.398	0.542	0.197	0.169	0.182	0.186	0.294	0.357	0.422	0.358	0.65	–	–	–	–
